Measured values reported in the supplement of paper PMC8671470.

Test system: MV4-11
Assay: cell viability (% survival relative to DMSO control); higher = less cytotoxic
Conditions: drug1 concentration 1000 nM; drug2 concentration 5000 nM; 72 h
Method: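 8x8 drug-combination matrices (0–5000 nM; rosiglitazone and lestaurtinib 0–1000 nM) were run in MV4-11 cells for 72 h with CellTiter-Glo read-out. Survival is normalised to DMSO and 10 µM bortezomib and clipped at 100%.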

| Structure (SMILES) | cell viability [%] |
| --- | --- |
| O=C(C1CC1)N1CC[C@@H](C=C2NNC(=O)N2c2ccc(-c3ccc4occc4c3)cc2)C1 + O=C(c1c2ccccc2cc2ccccc12)N1CCC(N2CCC[C@@H](C(=O)N3CCOCC3)C2)CC1 [CP-640186] | 86.4 |
| CC(C)c1onc(-c2c(Cl)cccc2Cl)c1COc1ccc(/C=C/c2cccc(C(=O)O)c2)c(Cl)c1 [GW4064] + Cn1cc(-c2ccncc2)c(-c2ccc(OCc3ccc4ccccc4n3)cc2)n1 [PF-02545920] | 50.4 |

Same assay, conditions: drug1 concentration 5000 nM; drug2 concentration 5 nM; 72 h

| Structure (SMILES) | cell viability [%] |
| --- | --- |
| O=C(C1CC1)N1CC[C@@H](C=C2NNC(=O)N2c2ccc(-c3ccc4occc4c3)cc2)C1 + CS(=O)(=O)N1CCN(Cc2cc3nc(-c4cccc5[nH]ncc45)nc(N4CCOCC4)c3s2)CC1 [Pictilisib] | > 100 |
| O=C(C1CC1)N1CC[C@@H](C=C2NNC(=O)N2c2ccc(-c3ccc4occc4c3)cc2)C1 + C[C@H](NC(=O)c1sccc1OCc1ccc(Cl)cc1)c1ccccc1 [as1949490] | > 100 |
| O=C(C1CC1)N1CC[C@@H](C=C2NNC(=O)N2c2ccc(-c3ccc4occc4c3)cc2)C1 + O=C(c1c2ccccc2cc2ccccc12)N1CCC(N2CCC[C@@H](C(=O)N3CCOCC3)C2)CC1 [CP-640186] | > 100 |
| CC(C)c1onc(-c2c(Cl)cccc2Cl)c1COc1ccc(/C=C/c2cccc(C(=O)O)c2)c(Cl)c1 [GW4064] + Cn1cc(-c2ccncc2)c(-c2ccc(OCc3ccc4ccccc4n3)cc2)n1 [PF-02545920] | 90.2 |

Same assay, conditions: drug1 concentration 5000 nM; drug2 concentration 10 nM; 72 h

| Structure (SMILES) | cell viability [%] |
| --- | --- |
| O=C(C1CC1)N1CC[C@@H](C=C2NNC(=O)N2c2ccc(-c3ccc4occc4c3)cc2)C1 + CS(=O)(=O)N1CCN(Cc2cc3nc(-c4cccc5[nH]ncc45)nc(N4CCOCC4)c3s2)CC1 [Pictilisib] | > 100 |
| O=C(C1CC1)N1CC[C@@H](C=C2NNC(=O)N2c2ccc(-c3ccc4occc4c3)cc2)C1 + C[C@H](NC(=O)c1sccc1OCc1ccc(Cl)cc1)c1ccccc1 [as1949490] | > 100 |
| O=C(C1CC1)N1CC[C@@H](C=C2NNC(=O)N2c2ccc(-c3ccc4occc4c3)cc2)C1 + O=C(c1c2ccccc2cc2ccccc12)N1CCC(N2CCC[C@@H](C(=O)N3CCOCC3)C2)CC1 [CP-640186] | 88.2 |
| CC(C)c1onc(-c2c(Cl)cccc2Cl)c1COc1ccc(/C=C/c2cccc(C(=O)O)c2)c(Cl)c1 [GW4064] + Cn1cc(-c2ccncc2)c(-c2ccc(OCc3ccc4ccccc4n3)cc2)n1 [PF-02545920] | 95.5 |

Same assay, conditions: drug1 concentration 5000 nM; drug2 concentration 50 nM; 72 h

| Structure (SMILES) | cell viability [%] |
| --- | --- |
| O=C(C1CC1)N1CC[C@@H](C=C2NNC(=O)N2c2ccc(-c3ccc4occc4c3)cc2)C1 + CS(=O)(=O)N1CCN(Cc2cc3nc(-c4cccc5[nH]ncc45)nc(N4CCOCC4)c3s2)CC1 [Pictilisib] | 56.5 |
| O=C(C1CC1)N1CC[C@@H](C=C2NNC(=O)N2c2ccc(-c3ccc4occc4c3)cc2)C1 + C[C@H](NC(=O)c1sccc1OCc1ccc(Cl)cc1)c1ccccc1 [as1949490] | > 100 |
| O=C(C1CC1)N1CC[C@@H](C=C2NNC(=O)N2c2ccc(-c3ccc4occc4c3)cc2)C1 + O=C(c1c2ccccc2cc2ccccc12)N1CCC(N2CCC[C@@H](C(=O)N3CCOCC3)C2)CC1 [CP-640186] | > 100 |
| CC(C)c1onc(-c2c(Cl)cccc2Cl)c1COc1ccc(/C=C/c2cccc(C(=O)O)c2)c(Cl)c1 [GW4064] + Cn1cc(-c2ccncc2)c(-c2ccc(OCc3ccc4ccccc4n3)cc2)n1 [PF-02545920] | 96.7 |

Same assay, conditions: drug1 concentration 5000 nM; drug2 concentration 100 nM; 72 h

| Structure (SMILES) | cell viability [%] |
| --- | --- |
| O=C(C1CC1)N1CC[C@@H](C=C2NNC(=O)N2c2ccc(-c3ccc4occc4c3)cc2)C1 + CS(=O)(=O)N1CCN(Cc2cc3nc(-c4cccc5[nH]ncc45)nc(N4CCOCC4)c3s2)CC1 [Pictilisib] | > 100 |
| O=C(C1CC1)N1CC[C@@H](C=C2NNC(=O)N2c2ccc(-c3ccc4occc4c3)cc2)C1 + C[C@H](NC(=O)c1sccc1OCc1ccc(Cl)cc1)c1ccccc1 [as1949490] | 98.4 |
| O=C(C1CC1)N1CC[C@@H](C=C2NNC(=O)N2c2ccc(-c3ccc4occc4c3)cc2)C1 + O=C(c1c2ccccc2cc2ccccc12)N1CCC(N2CCC[C@@H](C(=O)N3CCOCC3)C2)CC1 [CP-640186] | > 100 |
| CC(C)c1onc(-c2c(Cl)cccc2Cl)c1COc1ccc(/C=C/c2cccc(C(=O)O)c2)c(Cl)c1 [GW4064] + Cn1cc(-c2ccncc2)c(-c2ccc(OCc3ccc4ccccc4n3)cc2)n1 [PF-02545920] | 89.1 |

Same assay, conditions: drug1 concentration 5000 nM; drug2 concentration 500 nM; 72 h

| Structure (SMILES) | cell viability [%] |
| --- | --- |
| O=C(C1CC1)N1CC[C@@H](C=C2NNC(=O)N2c2ccc(-c3ccc4occc4c3)cc2)C1 + CS(=O)(=O)N1CCN(Cc2cc3nc(-c4cccc5[nH]ncc45)nc(N4CCOCC4)c3s2)CC1 [Pictilisib] | 80.3 |
| O=C(C1CC1)N1CC[C@@H](C=C2NNC(=O)N2c2ccc(-c3ccc4occc4c3)cc2)C1 + C[C@H](NC(=O)c1sccc1OCc1ccc(Cl)cc1)c1ccccc1 [as1949490] | > 100 |
| O=C(C1CC1)N1CC[C@@H](C=C2NNC(=O)N2c2ccc(-c3ccc4occc4c3)cc2)C1 + O=C(c1c2ccccc2cc2ccccc12)N1CCC(N2CCC[C@@H](C(=O)N3CCOCC3)C2)CC1 [CP-640186] | 97.5 |
| CC(C)c1onc(-c2c(Cl)cccc2Cl)c1COc1ccc(/C=C/c2cccc(C(=O)O)c2)c(Cl)c1 [GW4064] + Cn1cc(-c2ccncc2)c(-c2ccc(OCc3ccc4ccccc4n3)cc2)n1 [PF-02545920] | 77.9 |

Same assay, conditions: drug1 concentration 5000 nM; drug2 concentration 1000 nM; 72 h

| Structure (SMILES) | cell viability [%] |
| --- | --- |
| O=C(C1CC1)N1CC[C@@H](C=C2NNC(=O)N2c2ccc(-c3ccc4occc4c3)cc2)C1 + CS(=O)(=O)N1CCN(Cc2cc3nc(-c4cccc5[nH]ncc45)nc(N4CCOCC4)c3s2)CC1 [Pictilisib] | 74.8 |
| O=C(C1CC1)N1CC[C@@H](C=C2NNC(=O)N2c2ccc(-c3ccc4occc4c3)cc2)C1 + C[C@H](NC(=O)c1sccc1OCc1ccc(Cl)cc1)c1ccccc1 [as1949490] | 61.8 |
| O=C(C1CC1)N1CC[C@@H](C=C2NNC(=O)N2c2ccc(-c3ccc4occc4c3)cc2)C1 + O=C(c1c2ccccc2cc2ccccc12)N1CCC(N2CCC[C@@H](C(=O)N3CCOCC3)C2)CC1 [CP-640186] | > 100 |
| CC(C)c1onc(-c2c(Cl)cccc2Cl)c1COc1ccc(/C=C/c2cccc(C(=O)O)c2)c(Cl)c1 [GW4064] + Cn1cc(-c2ccncc2)c(-c2ccc(OCc3ccc4ccccc4n3)cc2)n1 [PF-02545920] | 73.6 |

Same assay, conditions: drug1 concentration 5000 nM; drug2 concentration 5000 nM; 72 h

| Structure (SMILES) | cell viability [%] |
| --- | --- |
| O=C(C1CC1)N1CC[C@@H](C=C2NNC(=O)N2c2ccc(-c3ccc4occc4c3)cc2)C1 + CS(=O)(=O)N1CCN(Cc2cc3nc(-c4cccc5[nH]ncc45)nc(N4CCOCC4)c3s2)CC1 [Pictilisib] | 55.6 |
| O=C(C1CC1)N1CC[C@@H](C=C2NNC(=O)N2c2ccc(-c3ccc4occc4c3)cc2)C1 + C[C@H](NC(=O)c1sccc1OCc1ccc(Cl)cc1)c1ccccc1 [as1949490] | 72 |
| O=C(C1CC1)N1CC[C@@H](C=C2NNC(=O)N2c2ccc(-c3ccc4occc4c3)cc2)C1 + O=C(c1c2ccccc2cc2ccccc12)N1CCC(N2CCC[C@@H](C(=O)N3CCOCC3)C2)CC1 [CP-640186] | 92.3 |
| CC(C)c1onc(-c2c(Cl)cccc2Cl)c1COc1ccc(/C=C/c2cccc(C(=O)O)c2)c(Cl)c1 [GW4064] + Cn1cc(-c2ccncc2)c(-c2ccc(OCc3ccc4ccccc4n3)cc2)n1 [PF-02545920] | 46.4 |
